Measured values from patent US8933012B2, “Glycopeptide antibiotic derivative” (priority 2006, dated 2015).
Converted amounts (≈) assume the structure as drawn.

Tests used:
[1] = Single-dose intravenous toxicity screening test in mouse; type: in vivo; settings: single intravenous dose 30 mg/kg, compared with corresponding compound having -COOH at the C-terminal
Experimental: The compounds of the invention were tested for water solubility and toxicity.

[2] = tested on: vancomycin-resistant enterococcus E. faecalis SR7914 (VanA); test: In vitro antimicrobial activity, MIC by microdilution method; type: cell-based
Experimental: (§1) In Vitro Assay of Antimicrobial Activity
(§2) For several compounds of the invention, minimal inhibitory concentration (MIC) was determined by the microdilution method using cation adjusted Mueller-Hinton broth well known in the art.

[3] = tested on: methicillin-resistant Staphylococcus aureus S. aureus SR3637 (H-MRSA); test: as above; type: cell-based
Experimental: as §1, §2

CCNNC(=O)C1NC(=O)C2NC(=O)[C@H](NC(=O)[C@@H]3NC(=O)[C@H](CC(N)=O)NC(=O)C(NC(=O)[C@@H](CC(C)C)NC)[C@H](O)c4ccc(c(Cl)c4)Oc4cc3cc(c4OC3O[C@H](CO)[C@@H](O)[C@H](O)[C@H]3OC3C[C@](C)(NCc4cccc(NC(=O)c5ccc(OC(F)(F)F)cc5)c4)[C@H](O)[C@H](C)O3)Oc3ccc(cc3Cl)[C@H]2O)c2ccc(O)c(c2)-c2c(O)cc(O)cc21 (stereo partly drawn) [Example 2]
histological findings in kidney etc. [1]: good histological findings

CN[C@H](CC(C)C)C(=O)NC1C(=O)N[C@@H](CC(N)=O)C(=O)N[C@H]2C(=O)N[C@H]3C(=O)NC(C(=O)NC(C(=O)NO)c4cc(O)cc(O)c4-c4cc3ccc4O)[C@H](O)c3ccc(c(Cl)c3)Oc3cc2cc(c3OC2O[C@H](CO)[C@@H](O)[C@H](O)[C@H]2OC2C[C@](C)(NCCC3CCN(C(=O)Nc4ccc(OC(F)(F)F)cc4)CC3)[C@H](O)[C@H](C)O2)Oc2ccc(cc2Cl)[C@H]1O (stereo partly drawn) [Example 4]
MIC [2]: 4 µg/mL (≈ 2.25 µM)
MIC [3]: 0.5 µg/mL (≈ 0.281 µM)
